Source: paper PMC11530689, “Anti colorectal cancer activity and in silico studies of novel pyridine nortopsentin analog as cyclin dependent kinase 6 inhibitor” (Scientific Reports, 2024)

How the values were obtained:
Assay in all cases: NCI 60 cell line screen
Assay type in all cases: cell-based
[1] = test system: OVCAR-5; conditions: OVCAR-5, Ovarian Cancer; single concentration 10^−5 M
Outline: (§1)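 One concentration only (10^-5 M); no dose-response. Testing was performed by NCI on 60 different cancer cell lines.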

[2] = test system: SK-MEL-2; conditions: SK-MEL-2, Melanoma; single concentration 10^−5 M
Outline: as §1

[3] = test system: IGROV1; conditions: IGROV1, Ovarian Cancer; single concentration 10^−5 M
Outline: as §1

[4] = test system: T-47D; conditions: Breast Cancer, single concentration 10^−5 M
Outline: as §1

[5] = test system: KM12; conditions: KM12, Colon Cancer; single concentration 10^−5 M
Outline: as §1

[6] = test system: HCC-2998; conditions: HCC-2998, Colon Cancer; single concentration 10^−5 M
Outline: as §1

[7] = test system: UO-31; conditions: UO-31, Renal Cancer; single concentration 10^−5 M
Outline: as §1

[8] = test system: NCI-H460; conditions: NCI-H460, Non-Small Cell Lung Cancer; single concentration 10^−5 M
Outline: as §1

[9] = test system: NCI-H522; conditions: NCI-H522, Non-Small Cell Lung Cancer; single concentration 10^−5 M
Outline: as §1

[10] = test system: SNB-19; conditions: SNB-19, CNS Cancer; single concentration 10^−5 M
Outline: as §1

[11] = test system: HT29; conditions: HT29, Colon Cancer; single concentration 10^−5 M
Outline: as §1

[12] = test system: HOP-62; conditions: HOP-62, Non-Small Cell Lung Cancer; single concentration 10^−5 M
Outline: as §1

[13] = test system: MDA-MB-231/ATCC; conditions: Breast Cancer, single concentration 10^−5 M
Outline: as §1

[14] = test system: BT-549; conditions: BT-549, Breast Cancer; single concentration 10^−5 M
Outline: as §1

[15] = test system: U251; conditions: U251, CNS Cancer; single concentration 10^−5 M
Outline: as §1

[16] = test system: DU-145; conditions: DU-145, Prostate Cancer; single concentration 10^−5 M
Outline: as §1

[17] = test system: M14; conditions: M14, Melanoma; single concentration 10^−5 M
Outline: as §1

[18] = test system: RPMI-8226; conditions: RPMI-8226, Leukemia; single concentration 10^−5 M
Outline: as §1

[19] = test system: SN12C; conditions: Renal Cancer, single concentration 10^−5 M
Outline: as §1

[20] = test system: MCF7; conditions: MCF7, Breast Cancer; single concentration 10^−5 M
Outline: as §1

[21] = test system: SW-620; conditions: SW-620, Colon Cancer; single concentration 10^−5 M
Outline: as §1

[22] = test system: SNB-75; conditions: SNB-75, CNS Cancer; single concentration 10^−5 M
Outline: as §1

[23] = test system: CCRF-CEM; conditions: Leukemia, single concentration 10^−5 M
Outline: as §1

[24] = test system: MDA-MB-435; conditions: MDA-MB-435, Melanoma; single concentration 10^−5 M
Outline: as §1

[25] = test system: PC-3; conditions: PC-3, Prostate Cancer; single concentration 10^−5 M
Outline: as §1

[26] = test system: LOX IMVI; conditions: Melanoma, single concentration 10^−5 M
Outline: as §1

[27] = test system: MALME-3M; conditions: Melanoma, single concentration 10^−5 M
Outline: as §1

[28] = test system: RXF 393; conditions: RXF 393, Renal Cancer; single concentration 10^−5 M
Outline: as §1

[29] = test system: HS 578T; conditions: Breast Cancer, single concentration 10^−5 M
Outline: as §1

[30] = test system: SR; conditions: Leukemia, single concentration 10^−5 M
Outline: as §1

[31] = test system: COLO205; conditions: COLO205, Colon Cancer; single concentration 10^−5 M
Outline: as §1

[32] = test system: K-562; conditions: K-562, Leukemia; single concentration 10^−5 M
Outline: as §1

[33] = test system: MOLT-4; conditions: MOLT-4, Leukemia; single concentration 10^−5 M
Outline: as §1

[34] = test system: CAKI-1; conditions: CAKI-1, Renal Cancer; single concentration 10^−5 M
Outline: as §1

[35] = test system: SF-295; conditions: SF-295, CNS Cancer; single concentration 10^−5 M
Outline: as §1

[36] = test system: TK-10; conditions: TK-10, Renal Cancer; single concentration 10^−5 M
Outline: as §1

[37] = test system: HL-60 (TB); conditions: Leukemia, single concentration 10^−5 M
Outline: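 NCI-60 single-point assay, 10^-5 M compound, cytotoxic activity per cell line.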

[38] = test system: SF-268; conditions: SF-268, CNS Cancer; single concentration 10^−5 M
Outline: as §1

With `N#Cc1c(-c2ccc([N+](=O)[O-])cc2)cc(-c2c[nH]c3ccccc23)nc1-c1c[nH]c2ccccc12` [4h] the Growth % [1] was 105.31%, the Growth % [2] was 96.75% and the Growth % [3] was 81.21%. It also gave a Growth % [4] of 88.78%, a Growth % [5] of 98.09% and a Growth % [6] of 108.98%. The Growth % [7] was 70.38%, the Growth % [8] was 100.56% and the Growth % [9] was 95.41%. It also gave a Growth % [10] of 100.62%, a Growth % [11] of 111.20% and a Growth % [12] of 99.88%. The Growth % [13] was 96.84%, the Growth % [14] was 108.68% and the Growth % [15] was 99.87%. The Growth % [16] was 103.04%, the Growth % [17] was 97.98% and the Growth % [18] was 95.92%. The Growth % [19] was 98.48%, the Growth % [20] was 90.39% and the Growth % [21] was 105.72%. It also gave a Growth % [22] of 90.31%, a Growth % [23] of 103.06% and a Growth % [24] of 104.27%. The Growth % [25] was 93.76%, the Growth % [26] was 92.89% and the Growth % [27] was 102.24%. It also gave a Growth % [28] of 111.16%, a Growth % [29] of 94.79% and a Growth % [30] of 84.51%. For the same molecule, the Growth % [31] was 114.22%, the Growth % [32] was 94.26% and the Growth % [33] was 100.27%. The Growth % [34] was 82.68%, the Growth % [35] was 100.99% and the Growth % [36] was 142.08%. For the same molecule, the Growth % [37] was 97.00% and the Growth % [38] was 93.92%.
